One series relates to 2.2.15 cells. The series is described as follows: Cytotoxicity (TC50, median toxic concentration) in 2.2.15 cells. In kind it is cell-based. On the procedure:
Cell control wells were simultaneously set up. […] IC50 and SI were calculated, respectively.

≈ marks a conversion by molar mass, not a printed value. Where “and” joins values, the source holds several entries; their conditions need not be identical. Identical values can stand only once. *1 amine or outer side, *2 acyl side, *3 side chain or, on linkers, in order; H or OH if unused. Where a SMILES comes first, the peptide text is derived from it. [ ]: non-standard residue; d: D form. The star is where a group is joined. Tyr(3-NO2) = N[C@@H](Cc1ccc(O)c([N+](=O)[O-])c1)C(=O)O; Phe(4-NO2) = N[C@@H](Cc1ccc([N+](=O)[O-])cc1)C(=O)O; Phe(4-NH2) = Nc1ccc(C[C@H](N)C(=O)O)cc1; Suc = O=C(CCC(=O)[*:2])[*:1]; 4Abz = Nc1ccc(C(=O)O)cc1; Propionyl = CCC(=O)*; Bz = O=C(c1ccccc1)*; ClAc = O=C(CCl)*

By melting point is commonly meant the temperature, or range, at which the solid turns liquid.

Regarding `O=C(O)CCC(=O)OC[C@H](Cc1ccccc1)NC(=O)[C@H](Cc1ccccc1)NC(=O)c1ccccc1` [Example 56, N-(N-benzoyl-L-phenylalanyl)-O-(3-carboxyl-propionyl)-L-phenylalaninol], the TC50 in the series on 2.2.15 cells turned out to be 333.33 µg/mL (≈ 663 µM). Molecule `COC(=O)[C@H](Cc1ccccc1)NC(=O)[C@H](Cc1ccc([N+](=O)[O-])cc1)NC(=O)c1ccccc1` [Example 12, methyl N-(N-benzoyl-4-nitro-L-phenylalanyl)-L-phenylalaninate] (Bz-[Phe(4-NO2)]-Phe-OMe) registered a melting point of 202 to 204.5 °C. In the series with 2.2.15 cells, this molecule registered a TC50 of 388.03 µg/mL (≈ 816 µM).

Molecule `COC(=O)[C@H](Cc1ccc(O)cc1)NC(=O)[C@H](Cc1ccccc1)NCc1ccncc1` [Example 46, methyl N-(N-isonicotinyl-L-phenylalanyl)-L-tyrosinate] gave a melting point of 216 to 217 °C. Regarding `COC(=O)[C@H](Cc1ccccc1)NC(=O)[C@H](Cc1ccccc1)NC(=O)c1ccc(NC(=O)CN2CCCC2)cc1` [Example 82, methyl N-{N-[4-(1-pyrrolidyl)acetamido-benzoyl]-L-phenylalanyl}-L-phenylalaninate], the TC50 with 2.2.15 cells was determined as 59.19 µg/mL (≈ 106 µM).

In the case of `COC(=O)[C@H](Cc1ccccc1)NC(=O)[C@H](Cc1ccccc1)NC(=O)c1cccc(C)c1` [Example 09, methyl N-(N-3-methyl-benzoyl-L-phenylalanyl)-L-phenylalaninate], the melting point lay in the range of 190 to 192 °C. In the series on 2.2.15 cells, this molecule showed a TC50 of 240.38 µg/mL (≈ 541 µM).

For `COC(=O)[C@H](Cc1ccccc1)NC(=O)[C@H](Cc1ccccc1)NC(=O)c1ccc(NC(=O)CCl)cc1` ({ClAc-4Abz}-Phe-Phe-OMe), the melting point was 222.5 to 224.5 °C. `COC(=O)[C@H](Cc1ccccc1)NC(=O)[C@H](Cc1ccccc1)NC(=O)c1ccc(O)cc1` registered a melting point of 151 to 153 °C. As to `COC(=O)[C@H](Cc1ccc(NC(C)=O)cc1)NC(=O)[C@H](Cc1ccccc1)NC(=O)c1ccc(C)cc1`, the melting point fell in the range of 221.5 to 222 °C.

In turn, `COC(=O)[C@H](Cc1ccccc1)NC(=O)[C@H](Cc1ccccc1)NCc1ccncc1` had a melting point of 174 to 175 °C. As to `COC(=O)[C@H](Cc1ccccc1)NC(=O)[C@H](Cc1ccccc1)NC(=O)c1ccc(NC(=O)CN(C)C)cc1` [Example 81, methyl N-[N-4-(dimethylamino-acetamido)-benzoyl-L-phenylalanyl]-L-phenylalaninate], in the series on 2.2.15 cells, the TC50 is 58.64 µg/mL (≈ 111 µM). With `COC(=O)[C@H](Cc1ccccc1)NC(=O)[C@H](Cc1ccc(O)cc1)NC(=O)c1ccc(NC(C)=O)cc1` (Ac-[4Abz]-Tyr-Phe-OMe), the melting point fell in the range of 225 to 226 °C.

With `COC(=O)[C@H](Cc1ccccc1)NC(=O)[C@H](Cc1ccccc1)NC(=O)c1ccc(NC(C)=O)cc1` (Ac-[4Abz]-Phe-Phe-OMe), the melting point lay within 208 to 209.5 °C. In the case of `COC(=O)[C@H](Cc1ccccc1)NC(=O)[C@H](Cc1ccc(O)cc1)NCc1ccncc1`, the melting point was in the range of 206.5 to 209 °C. In the case of `CC(=O)c1ccc(C[C@@H](CO)NC(=O)[C@H](Cc2ccccc2)NC(=O)c2ccccc2)cc1` [Example 69, N-(N-benzoyl-L-phenylalanyl)-4-acetyl-L-phenylalaninol], the melting point was in the range of 235.5 to 238 °C. For the same molecule, in the series on 2.2.15 cells, the TC50 came to 75.46 µg/mL (≈ 170 µM). For `COC(=O)[C@H](Cc1ccccc1)NC(=O)[C@H](Cc1ccc(O)cc1)NC(=O)c1ccccc1` (Bz-Tyr-Phe-OMe), the melting point was 200 to 202 °C. For `COC(=O)[C@H](Cc1ccc(O)cc1)NC(=O)[C@H](Cc1ccccc1)NC(=O)c1ccc(C)cc1` [Example 17, methyl N-(N-^4-methyl-benzoyl-L-phenylalanyl)-L-tyrosinate], the TC50 with 2.2.15 cells is 465.23 µg/mL (≈ 1010 µM). In turn, `O=C(N[C@@H](Cc1ccc([N+](=O)[O-])cc1)C(=O)N[C@H](CO)Cc1ccccc1)c1ccccc1` [Example 06, N-(N-benzoyl-4-nitro-L-phenylalanyl)-L-phenylalaninol] gave a melting point of 196 to 199 °C. In addition, in the series on 2.2.15 cells, the TC50 was 53.42 µg/mL (≈ 119 µM). Molecule `CCC(=O)Nc1ccc(C[C@H](NC(=O)[C@H](Cc2ccccc2)NC(=O)c2ccccc2)C(=O)O)cc1` [Example 94, N-(N-benzoyl-L-phenylalanyl)-4-propionamido-L-phenylalanine] (Bz-Phe-[Phe(4-NH2)](Propionyl)-OH) came in with a TC50 in the series on 2.2.15 cells of 561.21 µg/mL (≈ 1150 µM). Take `COC(=O)[C@H](Cc1ccc(O)cc1)NC(=O)[C@H](Cc1ccc([N+](=O)[O-])cc1)NC(=O)c1ccc(C)cc1` [Example 18, methyl N-(N-4-methyl-benzoyl-4-nitro-L-phenylalanyl)-L-tyrosinate]: the melting point was in the range of 213 to 215 °C. The same molecule registered a TC50 in the series with 2.2.15 cells of 45.28 µg/mL (≈ 89.6 µM).

On to `COC(=O)[C@H](Cc1ccccc1)NC(=O)[C@H](Cc1ccc(O)cc1)NC(=O)c1ccc(C)cc1`, for which the melting point is 190 to 192.5 °C. With `O=C(N[C@@H](Cc1ccc(O)cc1)C(=O)N[C@@H](Cc1ccccc1)C(=O)O)c1ccccc1` [Example 93, N-(N-benzoyl-L-tyrosyl)-L-phenylalanine] (Bz-Tyr-Phe-OH), the TC50 in the series with 2.2.15 cells worked out at 577.35 µg/mL (≈ 1330 µM). Same read-out and setting: the result for `CC(=O)Nc1ccc(C[C@H](NC(=O)[C@H](Cc2ccc(O)cc2)NC(=O)c2ccc(C)cc2)C(=O)O)cc1` [Example 96, N-(N-4-methyl-benzoyl-L-tyrosyl)-4-acetamido-L-phenylalanine] reads 199.67 µg/mL (≈ 397 µM). With `O=C(N[C@H](CO)Cc1ccccc1)[C@H](Cc1ccc(O)cc1)NCc1ccncc1` [Example 47, N-(N-isonicotinyl-L-tyrosyl)-L-phenylalaninol], the melting point is 210 to 212 °C. For the same molecule, the TC50 in the series on 2.2.15 cells stood at 256.78 µg/mL (≈ 633 µM).

Consider `O=C(N[C@@H](Cc1ccccc1)C(=O)N[C@H](CO)Cc1ccccc1)c1ccc(O)cc1` [Example 27, N-(N-4-hydroxyl-benzoyl-L-phenylalanyl)-L-phenylalaninol], for which the melting point lay within 223 to 225 °C. The TC50 in the series on 2.2.15 cells was 441.29 µg/mL and 456.75 µg/mL. `O=C(N[C@@H](Cc1ccccc1)C(=O)N[C@H](CO)Cc1ccccc1)c1ccccc1Cl` [Example 08, N-(N-2-chloro-benzoyl-L-phenylalanyl)-L-phenylalaninol] returned a TC50 in the series with 2.2.15 cells of 166.70 µg/mL (≈ 382 µM). `O=C(N[C@@H](Cc1ccc(O)cc1)C(=O)N[C@H](CO)Cc1ccccc1)c1cccc([N+](=O)[O-])c1` registered a melting point of 225.5 to 227 °C. In turn, `COC(=O)[C@H](Cc1ccccc1)NC(=O)[C@H](Cc1ccc(O)cc1)NC(=O)c1ccc([N+](=O)[O-])cc1` displayed a melting point of 212 to 214 °C. `Cc1ccc(C(=O)N[C@@H](Cc2ccccc2)C(=O)N[C@H](CO)Cc2ccccc2)cc1` [Example 13, N-(N-4-methyl-benzoyl-L-phenylalanyl)-L-phenylalaninol] came in with a melting point of 200 to 202 °C. In addition, the TC50 in the series with 2.2.15 cells turned out to be 776.06 µg/mL (≈ 1860 µM).

On to `COC(=O)[C@H](Cc1ccccc1)NC(=O)[C@H](Cc1ccc(O)c([N+](=O)[O-])c1)NC(=O)c1ccccc1` (Bz-[Tyr(3-NO2)]-Phe-OMe), for which the melting point lay within 201 to 202.5 °C. `CC(=O)Nc1ccc(C[C@H](NC(=O)[C@H](Cc2ccc(O)cc2)NC(=O)c2ccccc2)C(=O)[O-])cc1.[Na+]` [Example 95, N-(N-benzoyl-L-tyrosyl)-4-acetamido-L-phenylalanine sodium salt] (Bz-Tyr-[Phe(4-NH2)](Ac)-OH): the TC50 with 2.2.15 cells was determined as 79.46 µg/mL. As to `COC(=O)[C@H](Cc1ccc(O)cc1)NC(=O)[C@H](Cc1ccccc1)NC(=O)c1ccccc1Cl` [Example 11, methyl N-(N-2-chloro-benzoyl-L-phenylalanyl)-L-tyrosinate], the melting point was 164.5 to 167 °C. The molecule also yielded a TC50 with 2.2.15 cells of 500.00 µg/mL (≈ 1040 µM). In turn, `COC(=O)[C@H](Cc1ccc(N)cc1)NC(=O)[C@H](Cc1ccccc1)NC(=O)c1ccccc1.Cl` [Example 58, methyl N-(N-benzoyl-L-phenylalanyl)-4-amino-L-phenylalaninate hydrochloride] (Bz-Phe-[Phe(4-NH2)]-OMe) had a melting point of 173 to 175 °C. Further, the TC50 in the series with 2.2.15 cells is 28.74 µg/mL. For `COC(=O)[C@H](Cc1ccccc1)NC(=O)[C@H](Cc1ccccc1)NC(=O)c1ccccc1Cl` [Example 10, methyl N-(N-2-chloro-benzoyl-L-phenylalanyl)-L-phenylalaninate] the same measures were 152.5 to 153.5 °C and 288.68 µg/mL (≈ 621 µM).

Turning to `COC(=O)[C@H](Cc1ccc([N+](=O)[O-])cc1)NC(=O)[C@H](Cc1ccccc1)NCc1ccncc1`, the melting point is 224.5 to 225.5 °C. In the series on 2.2.15 cells, `O=C([O-])CCC(=O)Nc1ccc(C(=O)N[C@@H](Cc2ccccc2)C(=O)N[C@@H](Cc2ccccc2)C(=O)[O-])cc1.[Na+].[Na+]` [Example 92, N-[N-4-(3-carboxyl-propionamido)-benzoyl-L-phenylalanyl]-L-phenylalanine sodium salt] ({Suc-4Abz}-Phe-Phe-OH) registered a TC50 of 379.36 µg/mL.

The molecule `CC(=O)Nc1ccc(C[C@H](NC(=O)c2ccccc2C(=O)[O-])C(=O)N[C@H](CO)Cc2ccccc2)cc1.[Na+]` [Example 53, N-[N-(2-carboxyl-benzoyl)-4-acetamido-L-phenylalanyl]-L-phenylalaninol sodium salt] displayed a TC50 with 2.2.15 cells of 354.18 µg/mL. On the same count and under the same terms, the result for `O=C(N[C@@H](Cc1ccccc1)C(=O)N[C@H](CO)Cc1ccccc1)c1ccccc1` [Example 02, N-(N-benzoyl-L-phenylalanyl)-L-phenylalaninol] reads 231.12 µg/mL (≈ 574 µM). Same read-out and setting: to `CN(C)CC(=O)Nc1ccc(C(=O)N[C@@H](Cc2ccccc2)C(=O)N[C@H](CO)Cc2ccccc2)cc1` [Example 76, N-[N-4-(dimethylaino-acetamido)-benzoyl-L-phenylalanyl]-L-phenylalaninol] belongs 37.04 µg/mL (≈ 73.7 µM); to `CCC(=O)Nc1ccc(C[C@H](NC(=O)c2ccc(Cl)cc2)C(=O)N[C@@H](Cc2ccccc2)C(=O)OC)cc1` [Example 70, methyl N-[N-(4-chloro-benzoyl)-4-propionamido-L-phenylalanyl]-L-phenylalaninate], 17.81 µg/mL (≈ 33.2 µM); to `COC(=O)[C@H](Cc1ccccc1)NC(=O)[C@H](Cc1ccccc1)NC(=O)c1ccccc1` [Example 01, methyl N-(N-benzoyl-L-phenylalanyl)-L-phenylalaninate] (Bz-Phe-Phe-OMe), 1101.11 µg/mL (≈ 2560 µM).

The values above are taken from US9023809B2, “Phenylalanine dipeptide derivatives, compositions and use thereof” (The Key Laboratory of Chemistry For Natural Products of …, priority 2008, dated 2015).
